Results: ChEMBL document CHEMBL1909046, “DrugMatrix in vitro pharmacology data”

Legend:
[1] = biological target: T1, Alpha-1A adrenergic receptor (Rattus norvegicus, UniProt P43140); assay: DRUGMATRIX: Alpha-1A adrenergic receptor radioligand binding (ligand: prazosin); format: cell membranes, Wistar, Submaxillary gland, Membrane; settings: Not Active = under 50% inhibition at 10 µM
T1 sequence (P43140 whole entry): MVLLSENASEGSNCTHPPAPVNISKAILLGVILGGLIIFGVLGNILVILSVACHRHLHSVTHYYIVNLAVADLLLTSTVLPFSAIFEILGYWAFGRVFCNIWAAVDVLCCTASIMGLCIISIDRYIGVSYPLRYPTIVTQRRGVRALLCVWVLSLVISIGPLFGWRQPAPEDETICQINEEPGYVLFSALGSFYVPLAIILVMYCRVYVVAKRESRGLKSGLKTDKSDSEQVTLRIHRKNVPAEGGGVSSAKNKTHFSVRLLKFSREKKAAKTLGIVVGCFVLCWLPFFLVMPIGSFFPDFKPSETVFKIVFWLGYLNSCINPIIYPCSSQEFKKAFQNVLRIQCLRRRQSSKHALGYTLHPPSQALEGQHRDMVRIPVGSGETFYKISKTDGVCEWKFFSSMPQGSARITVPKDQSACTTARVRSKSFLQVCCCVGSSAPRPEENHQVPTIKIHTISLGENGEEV

[2] = biological target: T2, Vasoactive intestinal polypeptide receptor 1 (Homo sapiens, UniProt P32241); format: cell membranes, Membrane; settings: ht-29; note: in other assays of this panel Not Active means under 50% inhibition at 10 µM
T2 sequence (P32241 whole entry): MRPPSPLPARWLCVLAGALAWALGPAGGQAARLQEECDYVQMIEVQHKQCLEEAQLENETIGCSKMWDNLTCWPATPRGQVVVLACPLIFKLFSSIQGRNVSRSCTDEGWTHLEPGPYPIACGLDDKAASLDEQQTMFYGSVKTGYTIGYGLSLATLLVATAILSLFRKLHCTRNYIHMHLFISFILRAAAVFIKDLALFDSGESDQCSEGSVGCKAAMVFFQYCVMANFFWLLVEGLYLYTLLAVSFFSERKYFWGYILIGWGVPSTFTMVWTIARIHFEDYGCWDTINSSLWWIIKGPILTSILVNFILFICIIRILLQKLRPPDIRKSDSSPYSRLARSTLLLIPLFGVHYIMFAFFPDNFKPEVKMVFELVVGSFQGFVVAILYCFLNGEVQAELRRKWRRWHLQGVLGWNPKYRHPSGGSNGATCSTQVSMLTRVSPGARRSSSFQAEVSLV

[3] = biological target: Prostaglandin G/H synthase 1 (Homo sapiens, UniProt P23219); assay: biochemical; format: tissue-based, Platelet; settings: platelet;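 note: inhibition of COX-1 enzyme activity, with arachidonic acid supplied as substrate; in other assays of this panel Not Active means under 50% inhibition at 10 µM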
Nitric oxide synthase 1 = Nitric oxide synthase 1 (Rattus norvegicus, UniProt P29476); format: tissue-based, Cerebellum; note: in other assays of this panel Not Active means under 50% inhibition at 10 µM
Caspase-1 = biological target: T3, Caspase-1 (Homo sapiens, UniProt P29466); parameters: species or system Escherichia coli;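 note: Caspase-1 enzyme inhibition assay with a peptide substrate; in other assays of this panel Not Active means under 50% inhibition at 10 µM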
T3 sequence (P29466 whole entry): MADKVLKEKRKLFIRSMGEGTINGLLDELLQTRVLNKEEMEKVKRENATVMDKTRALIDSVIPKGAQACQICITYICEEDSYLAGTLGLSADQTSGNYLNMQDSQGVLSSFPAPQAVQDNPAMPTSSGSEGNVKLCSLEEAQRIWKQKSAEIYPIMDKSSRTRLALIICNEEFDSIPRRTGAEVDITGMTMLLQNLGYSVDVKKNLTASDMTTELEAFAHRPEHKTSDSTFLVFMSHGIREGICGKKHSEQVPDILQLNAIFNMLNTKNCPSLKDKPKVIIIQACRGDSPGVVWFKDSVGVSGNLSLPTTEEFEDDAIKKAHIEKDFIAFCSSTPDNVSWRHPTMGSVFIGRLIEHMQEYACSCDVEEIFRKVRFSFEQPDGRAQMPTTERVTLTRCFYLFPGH

Adenosine receptor A2a = Adenosine receptor A2a (Homo sapiens, UniProt P29274); assay: DRUGMATRIX: Adenosine A2A radioligand binding (ligand: […]); format: cell membranes, HEK293, Membrane; settings: hek293; Not Active = under 50% inhibition at 10 µM
Cytochrome P450 2E1 = Cytochrome P450 2E1 (Homo sapiens, UniProt P05181); settings: bti-tn-5b1-4; note: in other assays of this panel Not Active means under 50% inhibition at 10 µM
Sequence of Cytochrome P450 2E1 (P05181 whole entry): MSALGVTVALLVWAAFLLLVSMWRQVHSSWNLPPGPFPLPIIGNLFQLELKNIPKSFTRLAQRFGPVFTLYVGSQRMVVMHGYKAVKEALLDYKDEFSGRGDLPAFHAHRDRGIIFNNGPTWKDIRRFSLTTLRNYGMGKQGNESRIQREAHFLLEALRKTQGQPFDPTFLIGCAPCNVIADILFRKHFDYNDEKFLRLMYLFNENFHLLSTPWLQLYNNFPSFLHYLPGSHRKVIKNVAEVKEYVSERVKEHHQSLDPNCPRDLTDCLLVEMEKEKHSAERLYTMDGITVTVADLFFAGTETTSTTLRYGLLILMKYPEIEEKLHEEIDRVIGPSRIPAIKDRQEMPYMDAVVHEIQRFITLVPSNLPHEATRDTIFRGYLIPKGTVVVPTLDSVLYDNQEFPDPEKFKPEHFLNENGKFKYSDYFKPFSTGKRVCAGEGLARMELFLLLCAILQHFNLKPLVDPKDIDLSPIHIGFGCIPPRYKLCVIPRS

Sequence of Prostaglandin G/H synthase 1 (P23219 whole entry): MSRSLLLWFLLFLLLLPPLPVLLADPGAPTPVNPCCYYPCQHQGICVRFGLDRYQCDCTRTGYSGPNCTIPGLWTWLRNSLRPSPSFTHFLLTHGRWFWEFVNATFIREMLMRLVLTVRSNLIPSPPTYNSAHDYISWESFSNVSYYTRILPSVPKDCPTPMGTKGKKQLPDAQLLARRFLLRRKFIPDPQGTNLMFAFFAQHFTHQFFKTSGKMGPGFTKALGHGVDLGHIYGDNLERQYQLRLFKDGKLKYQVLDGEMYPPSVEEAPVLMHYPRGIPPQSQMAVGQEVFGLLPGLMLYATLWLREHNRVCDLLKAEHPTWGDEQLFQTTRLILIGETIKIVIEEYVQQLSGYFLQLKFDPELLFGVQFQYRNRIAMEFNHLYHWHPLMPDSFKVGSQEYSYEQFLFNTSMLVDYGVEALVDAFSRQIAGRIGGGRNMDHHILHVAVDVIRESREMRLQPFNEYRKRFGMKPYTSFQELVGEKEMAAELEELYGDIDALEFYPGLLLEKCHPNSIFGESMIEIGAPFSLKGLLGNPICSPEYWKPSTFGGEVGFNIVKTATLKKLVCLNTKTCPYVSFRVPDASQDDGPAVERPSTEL
Sequence of Adenosine receptor A2a (P29274 whole entry): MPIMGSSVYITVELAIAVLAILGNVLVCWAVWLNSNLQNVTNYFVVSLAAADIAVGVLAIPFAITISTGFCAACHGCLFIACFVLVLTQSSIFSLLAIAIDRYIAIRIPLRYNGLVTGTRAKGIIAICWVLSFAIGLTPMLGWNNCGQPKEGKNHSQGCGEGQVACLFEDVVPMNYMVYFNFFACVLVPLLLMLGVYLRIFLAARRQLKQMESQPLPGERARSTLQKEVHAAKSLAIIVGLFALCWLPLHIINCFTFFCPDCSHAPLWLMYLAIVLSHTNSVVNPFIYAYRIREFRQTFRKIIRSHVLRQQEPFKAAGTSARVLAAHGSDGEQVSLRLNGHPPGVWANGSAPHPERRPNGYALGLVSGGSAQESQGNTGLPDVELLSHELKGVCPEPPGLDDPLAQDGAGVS
Sequence of Nitric oxide synthase 1 (P29476 whole entry): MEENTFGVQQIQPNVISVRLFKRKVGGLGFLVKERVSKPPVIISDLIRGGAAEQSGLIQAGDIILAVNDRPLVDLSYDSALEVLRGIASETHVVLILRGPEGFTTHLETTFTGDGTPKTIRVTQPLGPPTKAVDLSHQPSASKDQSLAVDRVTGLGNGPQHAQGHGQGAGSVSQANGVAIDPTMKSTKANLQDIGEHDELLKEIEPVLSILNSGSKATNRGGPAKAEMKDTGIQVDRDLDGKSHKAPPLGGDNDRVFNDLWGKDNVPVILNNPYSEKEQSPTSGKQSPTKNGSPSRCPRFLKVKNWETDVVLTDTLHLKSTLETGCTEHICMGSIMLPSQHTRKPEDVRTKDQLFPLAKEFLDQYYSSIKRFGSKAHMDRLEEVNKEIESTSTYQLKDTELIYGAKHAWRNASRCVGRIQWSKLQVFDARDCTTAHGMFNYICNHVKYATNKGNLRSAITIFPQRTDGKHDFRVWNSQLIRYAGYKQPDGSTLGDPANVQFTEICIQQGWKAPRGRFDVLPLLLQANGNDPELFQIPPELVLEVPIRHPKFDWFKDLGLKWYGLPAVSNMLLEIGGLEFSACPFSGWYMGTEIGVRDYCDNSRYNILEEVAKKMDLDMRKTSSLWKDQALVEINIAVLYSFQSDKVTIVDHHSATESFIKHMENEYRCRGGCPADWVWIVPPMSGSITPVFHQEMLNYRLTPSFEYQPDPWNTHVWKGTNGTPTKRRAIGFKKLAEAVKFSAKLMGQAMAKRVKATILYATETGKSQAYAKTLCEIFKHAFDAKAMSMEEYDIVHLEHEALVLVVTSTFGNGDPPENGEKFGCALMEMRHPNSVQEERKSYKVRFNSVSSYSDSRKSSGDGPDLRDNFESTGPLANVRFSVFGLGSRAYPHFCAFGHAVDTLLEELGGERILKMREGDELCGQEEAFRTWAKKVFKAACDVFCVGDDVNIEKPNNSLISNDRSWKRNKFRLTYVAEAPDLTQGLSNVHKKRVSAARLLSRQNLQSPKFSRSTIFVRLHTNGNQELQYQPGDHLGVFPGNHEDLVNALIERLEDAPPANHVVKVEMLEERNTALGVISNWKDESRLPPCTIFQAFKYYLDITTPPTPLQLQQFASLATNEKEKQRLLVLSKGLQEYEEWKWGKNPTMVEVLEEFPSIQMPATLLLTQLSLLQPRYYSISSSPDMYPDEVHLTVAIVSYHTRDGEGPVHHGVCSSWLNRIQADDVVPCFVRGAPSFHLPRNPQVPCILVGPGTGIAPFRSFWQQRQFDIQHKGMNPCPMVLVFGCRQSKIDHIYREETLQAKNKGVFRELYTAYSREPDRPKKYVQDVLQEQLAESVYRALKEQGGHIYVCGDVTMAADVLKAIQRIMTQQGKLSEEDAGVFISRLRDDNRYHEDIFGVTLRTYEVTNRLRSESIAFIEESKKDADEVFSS

CCn1cc(C(=O)O)c(=O)c2cc(F)c(N3CCNC(C)C3)c(F)c21 (configuration not stated) [LOMEFLOXACIN]
Not Active: IC50 [1] | IC50 [2] | IC50 [3] | IC50 (Nitric oxide synthase 1) | IC50 (Caspase-1) | IC50 (Adenosine receptor A2a) | IC50 (Cytochrome P450 2E1) | Ki (Cytochrome P450 2E1)

CN1CCN(c2c(F)cc3c(=O)c(C(=O)O)cn(CCF)c3c2F)CC1 [FLEROXACIN]
Not Active: IC50 [1] | IC50 [2] | IC50 [3] | IC50 (Nitric oxide synthase 1) | IC50 (Caspase-1) | IC50 (Adenosine receptor A2a) | IC50 (Cytochrome P450 2E1) | Ki (Cytochrome P450 2E1)

CC(C)(C(=O)O)c1ccc(C(O)CCCN2CCC(C(O)(c3ccccc3)c3ccccc3)CC2)cc1 (configuration not stated) [FEXOFENADINE]
Not Active: IC50 [1] | IC50 [2] | IC50 [3] | IC50 (Nitric oxide synthase 1) | IC50 (Caspase-1) | IC50 (Adenosine receptor A2a) | IC50 (Cytochrome P450 2E1) | Ki (Cytochrome P450 2E1)

C[C@H]1COc2c(N3CCN(C)CC3)c(F)cc3c(=O)c(C(=O)O)cn1c23.C[C@H]1COc2c(N3CCN(C)CC3)c(F)cc3c(=O)c(C(=O)O)cn1c23.O [LEVOFLOXACIN]
Not Active: IC50 [1] | IC50 [2] | IC50 [3] | IC50 (Nitric oxide synthase 1) | IC50 (Caspase-1) | IC50 (Adenosine receptor A2a) | IC50 (Cytochrome P450 2E1) | Ki (Cytochrome P450 2E1)

NC(=O)c1cccc(N)c1 [3-AMINOBENZAMIDE]
Not Active: IC50 [1] | IC50 [2] | IC50 [3] | IC50 (Nitric oxide synthase 1) | IC50 (Caspase-1) | IC50 (Adenosine receptor A2a) | IC50 (Cytochrome P450 2E1) | Ki (Cytochrome P450 2E1)

CC(=O)OC[C@H]1O[C@@H](n2ncc(=O)[nH]c2=O)[C@H](OC(C)=O)[C@@H]1OC(C)=O [AZARIBINE]
Not Active: IC50 [1] | IC50 [2] | IC50 [3] | IC50 (Nitric oxide synthase 1) | IC50 (Caspase-1) | IC50 (Adenosine receptor A2a) | IC50 (Cytochrome P450 2E1) | Ki (Cytochrome P450 2E1)

NC(=O)N1c2ccccc2CC(=O)c2ccccc21 [OXCARBAZEPINE]
Not Active: IC50 [1] | IC50 [2] | IC50 [3] | IC50 (Nitric oxide synthase 1) | IC50 (Caspase-1) | IC50 (Adenosine receptor A2a) | IC50 (Cytochrome P450 2E1) | Ki (Cytochrome P450 2E1)

C#C[C@]1(O)CC[C@H]2[C@@H]3CCC4=CC(=O)CC[C@]4(C)[C@H]3CC[C@@]21C [ETHISTERONE]
Not Active: IC50 [1] | IC50 [2] | IC50 [3] | IC50 (Nitric oxide synthase 1) | IC50 (Caspase-1) | IC50 (Adenosine receptor A2a) | IC50 (Cytochrome P450 2E1) | Ki (Cytochrome P450 2E1)

CCC1=C(C)CN(C(=O)NCCc2ccc(S(=O)(=O)NC(=O)N[C@H]3CC[C@H](C)CC3)cc2)C1=O [GLIMEPIRIDE]
Not Active: IC50 [1] | IC50 [2] | IC50 [3] | IC50 (Nitric oxide synthase 1) | IC50 (Caspase-1) | IC50 (Adenosine receptor A2a) | IC50 (Cytochrome P450 2E1) | Ki (Cytochrome P450 2E1)

O=C(O)CCCc1cccs1
Not Active: IC50 [1] | IC50 [2] | IC50 [3] | IC50 (Nitric oxide synthase 1) | IC50 (Caspase-1) | IC50 (Adenosine receptor A2a) | IC50 (Cytochrome P450 2E1) | Ki (Cytochrome P450 2E1)

Cc1ccc(C)c(OCCCC(C)(C)C(=O)O)c1 [GEMFIBROZIL]
Not Active: IC50 [1] | IC50 [2] | IC50 [3] | IC50 (Nitric oxide synthase 1) | IC50 (Caspase-1) | IC50 (Adenosine receptor A2a) | IC50 (Cytochrome P450 2E1) | Ki (Cytochrome P450 2E1)

NNCCc1ccccc1 [PHENELZINE]
Not Active: IC50 [1] | IC50 [2] | IC50 [3] | IC50 (Nitric oxide synthase 1) | IC50 (Caspase-1) | IC50 (Adenosine receptor A2a) | IC50 (Cytochrome P450 2E1) | Ki (Cytochrome P450 2E1)

O=C(O)CCNC(=O)c1ccc(/N=N/c2ccc(O)c(C(=O)O)c2)cc1 [BALSALAZIDE]
Not Active: IC50 [1] | IC50 [2] | IC50 [3] | IC50 (Nitric oxide synthase 1) | IC50 (Caspase-1) | IC50 (Adenosine receptor A2a) | IC50 (Cytochrome P450 2E1) | Ki (Cytochrome P450 2E1)

C[S+](C)[O-] [DIMETHYL SULFOXIDE]
Not Active: IC50 [1] | IC50 [2] | IC50 [3] | IC50 (Nitric oxide synthase 1) | IC50 (Caspase-1) | IC50 (Adenosine receptor A2a) | IC50 (Cytochrome P450 2E1) | Ki (Cytochrome P450 2E1)

O=C(c1ccccc1F)N1CCC(Cc2ccccc2)CC1
Not Active: IC50 [1] | IC50 [2] | IC50 [3] | IC50 (Nitric oxide synthase 1) | IC50 (Caspase-1) | IC50 (Adenosine receptor A2a) | IC50 (Cytochrome P450 2E1) | Ki (Cytochrome P450 2E1)

COc1cc(OC)c(C(=O)CCCN2CCCC2)c(OC)c1 [BUFLOMEDIL]
Not Active: IC50 [1] | IC50 [2] | IC50 [3] | IC50 (Nitric oxide synthase 1) | IC50 (Caspase-1) | IC50 (Adenosine receptor A2a) | IC50 (Cytochrome P450 2E1) | Ki (Cytochrome P450 2E1)

COC(=O)Nc1nc2cc(C(=O)c3ccc(F)cc3)ccc2[nH]1 [FLUBENDAZOLE]
Not Active: IC50 [1] | IC50 [2] | IC50 [3] | IC50 (Nitric oxide synthase 1) | IC50 (Caspase-1) | IC50 (Adenosine receptor A2a) | IC50 (Cytochrome P450 2E1) | Ki (Cytochrome P450 2E1)

COc1ccnc(C[S+]([O-])c2nc3ccc(OC(F)F)cc3[nH]2)c1OC (configuration not stated) [PANTOPRAZOLE]
Not Active: IC50 [1] | IC50 [2] | IC50 [3] | IC50 (Nitric oxide synthase 1) | IC50 (Caspase-1) | IC50 (Adenosine receptor A2a) | IC50 (Cytochrome P450 2E1) | Ki (Cytochrome P450 2E1)

CCc1ccc(CCOc2ccc(CC3SC(=O)NC3=O)cc2)nc1 (configuration not stated) [PIOGLITAZONE]
Not Active: IC50 [1] | IC50 [2] | IC50 [3] | IC50 (Nitric oxide synthase 1) | IC50 (Caspase-1) | IC50 (Adenosine receptor A2a) | IC50 (Cytochrome P450 2E1) | Ki (Cytochrome P450 2E1)

CC[C@H]1[C@@H]2C[C@H]3[C@@H]4N(C)c5ccccc5[C@]45C[C@@H]([C@@H]2[C@H]5O)N3[C@@H]1O [AJMALINE]
Not Active: IC50 [1] | IC50 [2] | IC50 [3] | IC50 (Nitric oxide synthase 1) | IC50 (Caspase-1) | IC50 (Adenosine receptor A2a) | IC50 (Cytochrome P450 2E1) | Ki (Cytochrome P450 2E1)

CNC1=Nc2ccc(Cl)cc2C(c2ccccc2)=[N+]([O-])C1 [CHLORDIAZEPOXIDE]
Not Active: IC50 [1] | IC50 [2] | IC50 [3] | IC50 (Nitric oxide synthase 1) | IC50 (Caspase-1) | IC50 (Adenosine receptor A2a) | IC50 (Cytochrome P450 2E1) | Ki (Cytochrome P450 2E1)

C[C@@H]1O[C@@H](O[C@H]2C[C@@H](O)[C@]3(CO)[C@H]4[C@H](O)C[C@]5(C)[C@@H](C6=CC(=O)OC6)CC[C@]5(O)[C@@H]4CC[C@]3(O)C2)[C@H](O)[C@H](O)[C@H]1O [OUABAIN]
Not Active: IC50 [1] | IC50 [2] | IC50 [3] | IC50 (Nitric oxide synthase 1) | IC50 (Caspase-1) | IC50 (Adenosine receptor A2a) | IC50 (Cytochrome P450 2E1) | Ki (Cytochrome P450 2E1)

Cc1cccc(C)c1NC(=O)C1CCCCN1C (configuration not stated) [MEPIVACAINE]
Not Active: IC50 [1] | IC50 [2] | IC50 [3] | IC50 (Nitric oxide synthase 1) | IC50 (Caspase-1) | IC50 (Adenosine receptor A2a) | IC50 (Cytochrome P450 2E1) | Ki (Cytochrome P450 2E1)

CC1=NN(c2ccccc2)C(=O)C1 [EDARAVONE]
Not Active: IC50 [1] | IC50 [2] | IC50 [3] | IC50 (Nitric oxide synthase 1) | IC50 (Caspase-1) | IC50 (Adenosine receptor A2a) | IC50 (Cytochrome P450 2E1) | Ki (Cytochrome P450 2E1)
